Reference: US20180243211A1, “A PHARMACEUTICAL COMPOSITION FOR REDUCING LOCAL FAT AND USES THEREOF” (Caliway Biopharmaceuticals Co., Ltd., priority 2015, published 2018)

How the values were obtained:
[1] = test system: mature adipocytes (differentiated 3T3-L1 cells); experiment: Experiment 9-2: apoptosis of mature adipocytes (annexin V/PI flow cytometry), resveratrol with lipophilic drugs; format: cell-based; settings: 50 ppm total drug (complexes 20 ppm resveratrol + 30 ppm second drug), 24 hours; DMSO control 4.9±2.5%
Protocol: A DMSO control group cell culture medium, a resveratrol cell culture medium, a puerarin cell culture medium, a quercetin cell culture medium, a resveratrol-puerarin complex cell culture medium, and a resveratrol-quercetin complex cell culture medium were prepared as follows: The DMSO control group cell culture medium: DMSO was mixed with an appropriate amount of sterile water to obtain a 0.5% DMSO solution. The 0.5% DMSO solution was mixed with a cell culture medium (product name: Dulbecco's Modified Eagle Medium, purchased from Gibco) to prepare the DMSO control group cell culture medium, wherein, the volume ratio between the 0.5% DMSO solution and the cell culture medium is 1:1000. The resveratrol cell culture medium: resveratrol was mixed with an appropriate amount of 0.5% DMSO solution to obtain a resveratrol solution. The resveratrol solution was mixed with a cell culture medium (product name: Dulbecco's Modified Eagle Medium, purchased from Gibco) to prepare the resveratrol cell culture medium containing 50 ppm of resveratrol, wherein, the volume ratio between the resveratrol solution and the cell culture medium is 1:1000. The puerarin cell culture medium: puerarin (purchased from Sigma-Aldrich) was mixed with an appropriate amount of 0.5% DMSO solution to obtain a puerarin solution. The puerarin solution was mixed with a cell culture medium to prepare the puerarin cell culture medium containing 50 ppm of puerarin, wherein, the volume ratio between the puerarin solution and the cell culture medium is 1:1000. The quercetin cell culture medium: quercetin (purchased from Sigma-Aldrich) was mixed with an appropriate amount of 0.5% DMSO solution to obtain a quercetin solution. […] Annexin V protein (purchased from eBioscience) and propidium iodide (PI; purchased from eBioscience) were mixed with the cells in each group for a period of time, and then the percentage of cells labeled by annexin V protein and PI in each group was analyzed by flow cytometry to assess the percentage of mature adipocytes undergoing apoptosis. […]

[2] = test system: mature adipocytes (differentiated 3T3-L1 cells); experiment: Experiment 10-2: apoptosis of mature adipocytes (annexin V/PI flow cytometry), resveratrol with hydrophilic drugs; format: cell-based; settings: 50 ppm total drug (complexes 20 ppm resveratrol + 30 ppm second drug), 24 hours; sterile water control 9.6±1.5%
Protocol: A sterile water control group cell culture medium, a resveratrol cell culture medium, a caffeine cell culture medium, a L-carnitine cell culture medium, a resveratrol-caffeine complex cell culture medium, and a resveratrol-L-carnitine complex cell culture medium were prepared as follows: The sterile water control group cell culture medium: Sterile water was mixed with a cell culture medium to prepare the sterile water control group cell culture medium, wherein, the volume ratio between the sterile water and the cell culture medium is 1:1000. The resveratrol cell culture medium: it is the same method as the preparation of the resveratrol cell culture medium in Experiment 9-2. The caffeine cell culture medium: caffeine (purchased from Sigma-Aldrich) was mixed with an appropriate amount of sterile water to obtain a caffeine solution. The caffeine solution was mixed with a cell culture medium to prepare the caffeine cell culture medium containing 50 ppm of caffeine, wherein, the volume ratio between the caffeine solution and the cell culture medium is 1:1000. The L-carnitine cell culture medium: L-carnitine (purchased from Sigma-Aldrich) was mixed with an appropriate amount of sterile water to obtain a L-carnitine solution. The L-carnitine solution was mixed with a cell culture medium to prepare the L-carnitine cell culture medium containing 50 ppm of L-carnitine, wherein, the volume ratio between the L-carnitine solution and the cell culture medium is 1:1000. The resveratrol-caffeine complex cell culture medium: resveratrol, caffeine, and an appropriate amount of sterile water were mixed to obtain a resveratrol-caffeine complex solution. […] Annexin V protein (purchased from eBioscience) and propidium iodide (PI; purchased from eBioscience) were mixed with the cells in each group for a period of time, and then the percentage of cells labeled by annexin V protein and PI in each group was analyzed by flow cytometry to assess the percentage of mature adipocytes undergoing apoptosis.

Compound	percentage of apoptotic cells [1]	percentage of apoptotic cells [2]
O=c1c(-c2ccc(O)cc2)coc2c([C@@H]3O[C@H](CO)[C@@H](O)[C@H](O)[C@H]3O)c(O)ccc12 [puerarin]	7.2±3.7%	–
Cn1c(=O)c2c(ncn2C)n(C)c1=O [caffeine]	–	6.9±1.1%
Oc1ccc(C=Cc2cc(O)cc(O)c2)cc1 [resveratrol]	19.1±1.1%	19.0±1.1%
O=c1c(O)c(-c2ccc(O)c(O)c2)oc2cc(O)cc(O)c12 [quercetin]	5.9±2.6%	–
C[N+](C)(C)C[C@H](O)CC(=O)[O-] [L-carnitine]	–	5.2±1.2%
